This note sets out measurements from patent US10428080B2, “TBK/IKK inhibitor compounds and uses thereof” (Merck Patent GmbH, priority 2015, dated 2019).

Structures are written as SMILES. Counter-ions that a name gives are not always drawn. Where only a bound is given, the exact number is not on record here.

One assay deals with T1, IKKε (Homo sapiens, UniProt Q14164).
T1 sequence (Q14164 1-716): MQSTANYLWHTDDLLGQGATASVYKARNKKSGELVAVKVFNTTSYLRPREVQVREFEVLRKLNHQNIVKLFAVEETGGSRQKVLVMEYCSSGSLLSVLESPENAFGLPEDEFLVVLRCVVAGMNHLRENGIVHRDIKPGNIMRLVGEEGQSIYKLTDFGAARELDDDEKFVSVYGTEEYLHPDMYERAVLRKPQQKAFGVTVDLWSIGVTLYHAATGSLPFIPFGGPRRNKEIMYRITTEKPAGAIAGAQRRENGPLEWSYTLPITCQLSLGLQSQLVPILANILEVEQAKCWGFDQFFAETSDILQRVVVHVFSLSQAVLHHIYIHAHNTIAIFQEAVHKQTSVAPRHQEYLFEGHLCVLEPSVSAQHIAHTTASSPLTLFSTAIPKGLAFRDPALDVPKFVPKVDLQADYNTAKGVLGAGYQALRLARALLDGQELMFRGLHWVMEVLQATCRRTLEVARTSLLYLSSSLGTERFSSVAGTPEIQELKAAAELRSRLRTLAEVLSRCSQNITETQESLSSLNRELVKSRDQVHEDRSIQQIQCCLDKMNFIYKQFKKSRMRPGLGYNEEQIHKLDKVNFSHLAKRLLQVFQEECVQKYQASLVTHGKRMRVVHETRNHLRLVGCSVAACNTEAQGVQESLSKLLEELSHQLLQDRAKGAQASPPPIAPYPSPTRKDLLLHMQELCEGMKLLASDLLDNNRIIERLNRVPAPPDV
The assay can be described thus: IKKe Biochemical Assay. To be noted: read-out: IKKε IC50. Put shortly: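 Activity was measured as mobility-shift separation of phosphorylated from unphosphorylated substrate on a LabChip EZ Reader. Compound was titrated from 30 uM final in 10 points, 1:4 steps, with 1% DMSO, and enzyme plus substrate reacted 90 min at 25° C before stop buffer. Control wells held 10 uM staurosporine.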

Another assay addresses T2, TBK1 (Homo sapiens, UniProt Q9UHD2).
T2 sequence (Q9UHD2 1-729): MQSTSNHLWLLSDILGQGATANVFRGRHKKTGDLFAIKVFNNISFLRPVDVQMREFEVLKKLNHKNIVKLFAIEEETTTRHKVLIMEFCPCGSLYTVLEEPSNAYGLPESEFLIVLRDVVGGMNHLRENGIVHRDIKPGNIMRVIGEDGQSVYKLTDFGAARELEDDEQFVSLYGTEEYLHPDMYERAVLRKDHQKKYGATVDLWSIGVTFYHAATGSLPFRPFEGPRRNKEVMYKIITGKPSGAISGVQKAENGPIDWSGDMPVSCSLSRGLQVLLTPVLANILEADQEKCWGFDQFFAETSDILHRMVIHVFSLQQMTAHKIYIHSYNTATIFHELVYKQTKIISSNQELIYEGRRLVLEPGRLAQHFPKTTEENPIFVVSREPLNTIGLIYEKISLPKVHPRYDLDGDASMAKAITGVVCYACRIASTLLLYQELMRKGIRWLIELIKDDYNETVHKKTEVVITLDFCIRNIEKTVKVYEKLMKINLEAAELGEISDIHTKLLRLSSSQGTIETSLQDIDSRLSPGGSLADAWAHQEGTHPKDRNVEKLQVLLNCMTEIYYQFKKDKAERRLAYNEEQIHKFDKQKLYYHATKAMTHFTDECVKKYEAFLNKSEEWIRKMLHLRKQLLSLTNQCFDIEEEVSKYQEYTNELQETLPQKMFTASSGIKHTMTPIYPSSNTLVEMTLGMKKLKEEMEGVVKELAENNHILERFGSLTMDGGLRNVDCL
Description: TBK Biochemical Assay. The settings on record: read-out: TBK1 IC50. In a few lines: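 Caliper LabChip mobility-shift readout of substrate and product after 90 min of TBK1 reaction at 25° C and stop-buffer addition. Compounds tested in 1:4 serial dilution over 10 points from 30 uM final at 1% DMSO; staurosporine 10 uM final defines full inhibition.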

In general, IC50 refers to the concentration that inhibits the measured activity by half. `COc1cc(C(=O)N(C)C)cnc1-c1cc2ncc(C3CC3)c(-c3ccc(OC4CCOCC4)c(C#N)n3)c2o1` [Compound 357, 6-[7-[6-cyano-5-(oxan-4-yloxy)pyridin-2-yl]-6-cyclopropylfuro[3,2-b]pyridin-2-yl]-5-methoxy-N,N-dimethylpyridine-3-carboxamide hydrochloride]: the IC50 on IKKε and at TBK1 was greater than 5000 nM throughout.

Turning to `COc1cc(C(=O)N(C)C)cnc1-c1cc2ncc(OC)c(-c3ccc(NC4CCOCC4)c(C#N)n3)c2o1` [Compound 358, 6-(7-[6-cyano-5-[(oxan-4-yl)amino]pyridin-2-yl]-6-methoxyfuro[3,2-b]pyridin-2-yl)-5-methoxy-N,N-dimethylpyridine-3-carboxamide], the IC50 at IKKε and on TBK1 was 1000 to 5000 nM throughout.

Turning to `COc1cc(C(=O)N(C)CCO)cnc1-c1cc2ncc(C)c(-c3ccc(OC4CCOCC4)c(C#N)n3)c2o1` [Compound 360, 6-[7-[6-cyano-5-(oxan-4-yloxy)pyridin-2-yl]-6-methylfuro[3,2-b]pyridin-2-yl]-N-(2-hydroxyethyl)-5-methoxy-N-methylpyridine-3-carboxamide hydrochloride], the IC50 on IKKε and at TBK1 was 100 to 1000 nM throughout.

For the molecule `COc1cc(C(=O)N(C)CCO)cnc1-c1cc2ncc(OC)c(-c3ccc(OC4CCOCC4)c(C#N)n3)c2o1` [Compound 362, 6-[7-[6-cyano-5-(oxan-4-yloxy)pyridin-2-yl]-6-methoxyfuro[3,2-b]pyridin-2-yl]-N-(2-hydroxyethyl)-5-methoxy-N-methylpyridine-3-carboxamide], the IC50 on IKKε and on TBK1 was 100 to 1000 nM throughout.

Take `COc1cc(C(=O)N(C)CCO)cnc1-c1cc2ncc(C3CC3)c(-c3ccc(OC4CCOCC4)c(C#N)n3)c2o1` [Compound 363, 6-[7-[6-cyano-5-(oxan-4-yloxy)pyridin-2-yl]-6-cyclopropylfuro[3,2-b]pyridin-2-yl]-N-(2-hydroxyethyl)-5-methoxy-N-methylpyridine-3-carboxamide hydrochloride]: the IC50 on IKKε and on TBK1 was greater than 5000 nM in each case.

`COc1cc(C(=O)N(C)CCO)ncc1-c1cc2nccc(-c3cc(C#N)c(OC4CCOCC4)cn3)c2o1` [Compound 377, 5-[7-[4-cyano-5-(oxan-4-yloxy)pyridin-2-pyridin-2-yl]furo[3,2-b]pyridin-2-yl]-N-(2-hydroxyethyl)-4-methoxy-N-methylpyridine-2-carboxamide]: the IC50 on IKKε and at TBK1 was 100 to 1000 nM in each case.

Consider `COc1cc(C(=O)N2CCCCC2)ncc1-c1cc2nccc(-c3cc(C#N)c(OC4CCOCC4)cn3)c2o1` [Compound 383, 2-(2-[4-methoxy-6-[(piperidin-1-yl)carbonyl]pyridin-3-yl]furo[3,2-b]pyridin-7-yl)-5-(oxan-4-yloxy)pyridine-4-carbonitrile], for which the IC50 on IKKε and at TBK1 was 100 to 1000 nM each time.

As for `COc1cc(C(=O)N(C)C)ncc1-c1cc2nccc(-c3cc(C#N)c(OC4CCOCC4)cn3)c2o1` [Compound 386, 5-[7-[4-cyano-5-(oxan-4-yloxy)pyridin-2-yl]furo[3,2-b]pyridin-2-yl]-4-methoxy-N,N-dimethylpyridine-2-carboxamide], the half-maximal inhibitory concentration (IC50) at IKKε and on TBK1 was 100 to 1000 nM throughout.

As for `COc1cc(-c2cc3nccc(-c4ccc(NC5CCOCC5)c(C#N)c4)c3o2)ncc1C(=O)N(C)C` [Compound 392, 6-(7-[3-cyano-4-[(oxan-4-yl)amino]phenyl]furo[3,2-b]pyridin-2-yl)-4-methoxy-N,N-dimethylpyridine-3-carboxamide], the IC50 at IKKε and on TBK1 was 100 to 1000 nM each time.

With `COc1cc(C(=O)N(C)C)cnc1-c1cc2nccc(-c3ncc(OC4CCOCC4)c(C#N)n3)c2o1` [Compound 396, 6-[7-[4-cyano-5-(oxan-4-yloxy)pyrimidin-2-yl]furo[3,2-b]pyridin-2-yl]-5-methoxy-N,N-dimethylpyridine-3-carboxamide], the IC50 at IKKε and at TBK1 was 100 to 1000 nM throughout.

For the molecule `COc1cc(C(=O)N(C)C)ccc1-c1cc2nccc(Nc3ccc(OC4CCOCC4)c(C#N)c3)c2o1` [Compound 399, 4-(7-[[3-cyano-4-(oxan-4-yloxy)phenyl]amino]furo[3,2-b]pyridin-2-yl)-3-methoxy-N,N-dimethylbenzamide], the IC50 on IKKε and on TBK1 was greater than 5000 nM throughout.

In the case of `COc1cc(C(=O)N2CC3COCC3C2)ncc1-c1cc2nccc(-c3ccc(NC4CCOCC4)c(C#N)c3)c2o1` (centres unmarked) [Compound 421, 5-[2-[6-([hexahydro-1H-furo[3,4-c]pyrrol-5-yl]carbonyl)-4-methoxypyridin-3-yl]furo[3,2-b]pyridin-7-yl]-2-[(oxan-4-yl)amino]benzonitrile], the IC50 at IKKε and at TBK1 was less than 100 nM each time.

Take `COc1cc(C(=O)N2CC3CN(C)CC3C2)ncc1-c1cc2nccc(-c3ccc(N4CC[C@@H](F)C4)c(C#N)c3)c2o1` (stereo partly drawn) [Compound 453, 2-[(3R)-3-fluoropyrrolidin-1-yl]-5-[2-[4-methoxy-6-([5-methyl-octahydropyrrolo[3,4-c]pyrrol-2-yl]carbonyl)pyridin-3-yl]furo[3,2-b]pyridin-7-yl]benzonitrile]: the IC50 on IKKε and at TBK1 was less than 100 nM each time.

Turning to `COc1cc(C(=O)NC2C3COCC32)ncc1-c1cc2nccc(-c3ccc(N4CC[C@@H](F)C4)c(C#N)c3)c2o1` (stereo partly drawn) [Compound 469, 5-(7-[3-cyano-4-[(3R)-3-fluoropyrrolidin-1-yl]phenyl]furo[3,2-b]pyridin-2-yl)-4-methoxy-N-[3-oxabicyclo[3.1.0]hexan-6-yl]pyridine-2-carboxamide], the IC50 on IKKε and at TBK1 was less than 100 nM each time.

As to `COc1cc(C(=O)NC2CC3CCC2CC3)ccc1-c1cc2nccc(-c3ccc(OC4CCOCC4)c(C#N)c3)c2o1` (centres unmarked) [Compound 495], the IC50 at IKKε is less than 100 nM; on TBK1, 100 to 1000 nM.

In the case of `COc1cc(C(=O)NC2CC3CCC2C3)ccc1-c1cc2nccc(-c3ccc(OC4CCOCC4)c(C#N)c3)c2o1` (centres unmarked) [Compound 496], the IC50 at IKKε and at TBK1 was less than 100 nM in each case.
